Measurements published in patent publication US8148531B2 (Chroma Therapeutics Ltd., priority 2005, dated 2012).

Legend:
Aurora-A = biological target: T1, Aurora-A (Homo sapiens, UniProt O14965); assay: Aurora-A enzyme assay (MBP-coated Flashplate, γ-33P-ATP); assay type: biochemical; conditions: IC50 range class; read-out: Inhibitor Activity vs Aurora-A
T1 sequence (O14965 1-403): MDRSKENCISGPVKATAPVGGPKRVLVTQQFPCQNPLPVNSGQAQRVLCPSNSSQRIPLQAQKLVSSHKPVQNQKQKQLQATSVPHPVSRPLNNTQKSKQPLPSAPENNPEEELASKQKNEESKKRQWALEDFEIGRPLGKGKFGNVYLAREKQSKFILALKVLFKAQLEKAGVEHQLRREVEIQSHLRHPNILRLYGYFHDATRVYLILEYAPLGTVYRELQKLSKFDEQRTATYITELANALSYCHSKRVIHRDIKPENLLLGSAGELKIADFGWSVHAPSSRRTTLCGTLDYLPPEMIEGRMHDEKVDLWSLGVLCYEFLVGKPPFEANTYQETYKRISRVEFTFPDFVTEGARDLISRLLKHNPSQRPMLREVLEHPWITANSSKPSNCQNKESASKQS
Experimental: The ability of compounds to inhibit Aurora-A activity was measured using a simple microplate assay for Aurora-A activity, also suitable for high-throughput screening. In brief, γ-^33P-ATP and Aurora-A were incubated in a myelin basic protein (MBP)-coated Flashplate® to generate a scintillation signal. The plates were formatted to contain the inhibitor, controls, positive control (staurosporin) and blanks. After incubation at 37° C. for 1 hour and a subsequent wash procedure, the plates were read on a TopCount-NXT™.
The 384-well basic Flashplate® and the γ-^33P-ATP were obtained from PerkinElmer Life Sciences, Boston, Mass.
IC50 values were determined by non-linear regression analysis, after fitting the data point results to the equation for sigmoidal dose response with variable slope (% activity against log concentration of compound), using Graphpad Prism software.
Full experimental procedure for this assay can be found within the following reference: Sun, C Journal of Biomolecular Screening 9(5), 2004, 391.

U937 cell line = assay: Cell inhibition assay (SRB cell viability), U937; assay type: cell-based; conditions: Homo sapiens, U-937, IC50 range class, 72 h, read-out: Inhibitor Activity vs U937 cell line
Procedure, shortened: (§1)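 Log-phase cells seeded at 1000 cells/well, grown 24 h, then exposed to compounds (20 uM final) for 72 h. Viability read by sulphorhodamine B staining as % inhibition versus DMSO; IC50 from eight-point sigmoidal variable-slope fit.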

HCT 116 cell line = assay: Cell inhibition assay (SRB cell viability), HCT 116; assay type: cell-based; conditions: Homo sapiens, IC50 range class, 72 h, read-out: Inhibitor Activity vs HCT 116 cell line
Procedure, shortened: as §1

HUT cell line = assay: Cell inhibition assay (SRB cell viability), HUT; assay type: cell-based; conditions: IC50 range class, 72 h, read-out: Inhibitor Activity vs HUT cell line
Procedure, shortened: as §1

Aurora-B = Aurora-B (Homo sapiens, UniProt Q96GD4); assay: Aurora-B enzyme assay (identical protocol as Aurora-A); assay type: biochemical; conditions: IC50 range class; read-out: Inhibitor Activity vs Aurora-B
Procedure, shortened: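 Aurora-B was assayed in the same way as Aurora-A: kinase and γ-33P-ATP were incubated for 1 h at 37 °C in myelin basic protein-coated scintillation plates. After washing, bound radioactivity was counted. IC50 values came from a variable-slope sigmoidal fit of % activity against log compound concentration.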

Aurora-B, sequence (Q96GD4 whole entry): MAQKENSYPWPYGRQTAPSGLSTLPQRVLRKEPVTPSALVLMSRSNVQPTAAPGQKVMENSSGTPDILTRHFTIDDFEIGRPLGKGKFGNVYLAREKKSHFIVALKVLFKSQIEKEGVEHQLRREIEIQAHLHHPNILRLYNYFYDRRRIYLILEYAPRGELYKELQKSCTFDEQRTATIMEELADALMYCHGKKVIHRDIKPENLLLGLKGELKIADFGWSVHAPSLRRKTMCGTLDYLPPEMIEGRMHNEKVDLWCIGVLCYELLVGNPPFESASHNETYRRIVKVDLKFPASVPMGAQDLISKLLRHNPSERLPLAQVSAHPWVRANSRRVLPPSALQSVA

| IC50 (Aurora-A) [nM] | IC50 (U937 cell line) [nM] | IC50 (HCT 116 cell line) [nM] | IC50 (Aurora-B) [nM] | Structure (SMILES) | IC50 (HUT cell line) [nM] |
| --- | --- | --- | --- | --- | --- |
| 2000 to 5000 | 1000 to 5000 | 1000 to 5000 | > 5000 | COc1cc2c(Nc3ccc(NC(=O)c4ccccc4)cc3)ccnc2cc1OCC[C@H](N)C(=O)OC1CCCC1 [Example 15, (S)-2-Amino-4-[4-(4-benzoylamino-phenylamino)-6-methoxy-quinolin-7-yloxy]-butyric acid cyclopentyl ester] | 1000 to 5000 |
| < 2000 | < 1000 | < 1000 | > 5000 | COc1cc2c(Sc3ccc(NC(=O)c4ccccc4)cc3)ccnc2cc1OCC[C@H](N)C(=O)OC1CCCC1 [Example 18, (S)-2-Amino-4-[4-(4-benzoylamino-phenylsulfanyl)-6-methoxy-quinolin-7-yloxy]-butyric acid cyclopentyl ester] | < 1000 |
| 2000 to 5000 | < 1000 | < 1000 | 2000 to 5000 | COc1cc2c(Oc3ccc(NC(=O)c4ccccc4)cc3)ccnc2cc1OCC[C@@H](N)C(=O)OC1CCCC1 [Example 99, (R)-2-Amino-4-[4-(4-benzoylamino-phenoxy)-6-methoxy-quinolin-7-yloxy]-butyric acid cyclopentyl ester] | < 1000 |
| 2000 to 5000 | < 1000 | < 1000 | 2000 to 5000 | COc1cc2c(Oc3ccc(NC(=O)Nc4ccccc4)cc3)ccnc2cc1OCCC[C@H](N)C(=O)OC1CCCC1 [Example 111, (S)-2-Amino-5-{6-methoxy-4-[4-(3-phenyl-ureido)-phenoxy]-quinolin-7-yloxy}-pentanoic acid cyclopentyl ester] | < 1000 |
| < 2000 | < 1000 | < 1000 | 2000 to 5000 | COc1cc2c(Oc3ccc(NC(=O)Nc4ccc(C(F)(F)F)cc4)cc3)ccnc2cc1OCC[C@H](N)C(=O)OC1CCCC1 [Example 93, (S)-2-Amino-4-(6-methoxy-4-{4-[3-(4-trifluoromethyl-phenyl)-ureido]-phenoxy}-quinolin-7-yloxy)-butyric acid cyclopentyl ester] | < 1000 |
| 2000 to 5000 | < 1000 | < 1000 | 2000 to 5000 | COc1cc2c(Oc3ccc(NC(=O)c4ccccc4)cc3)ccnc2cc1OCCC[C@@H](N)C(=O)OC1CCCC1 [Example 115, (R)-2-Amino-5-[4-(4-benzoylamino-phenoxy)-6-methoxy-quinolin-7-yloxy]-pentanoic acid cyclopentyl ester] | < 1000 |
| 2000 to 5000 | < 1000 | < 1000 | < 2000 | COc1cc2c(Oc3ccc(NC(=O)Nc4ccccc4)cc3)ccnc2cc1OCC[C@@H](N)C(=O)OC1CCCC1 [Example 101, (R)-2-Amino-4-{6-methoxy-4-[4-(3-phenyl-ureido)-phenoxy]-quinolin-7-yloxy}-butyric acid cyclopentyl ester] | < 1000 |
| 2000 to 5000 | < 1000 | < 1000 | 2000 to 5000 | COc1cc2c(Oc3ccc(NC(=O)Nc4ccccc4)cc3)ccnc2cc1OCC[C@H](N)C(=O)OC1CCCC1 [Example 95, (S)-2-Amino-4-{6-methoxy-4-[4-(3-phenyl-ureido)-phenoxy]-quinolin-7-yloxy}-butyric acid cyclopentyl ester] | < 1000 |
| 2000 to 5000 | < 1000 | < 1000 | 2000 to 5000 | COc1cc2c(Oc3ccc(NC(=O)c4ccccc4)cc3)ccnc2cc1OCC[C@H](N)C(=O)OC(C)(C)C [Example 50, (S)-2-Amino-4-[4-(4-benzoylamino-phenoxy)-6-methoxy-quinolin-7-yloxy]-butyric acid tert-butyl ester] | < 1000 |
| 2000 to 5000 | < 1000 | < 1000 | 2000 to 5000 | COc1cc2c(Oc3ccc(NC(=O)c4ccccc4)cc3)ccnc2cc1OCC[C@H](N)C(=O)OC1CCCC1 [Example 2, (S)-2-Amino-4-[4-(4-benzoylamino-phenoxy)-6-methoxy-quinolin-7-yloxy]-butyric acid cyclopentyl ester] | < 1000 |
| < 2000 | < 1000 | < 1000 | < 2000 | COc1cc2c(Oc3ccc(NC(=O)Nc4ccc(C(F)(F)F)cc4)cc3)ccnc2cc1OCCC[C@@H](N)C(=O)OC1CCCC1 [Example 119, (R)-2-Amino-5-(6-methoxy-4-{4-[3-(4-trifluoromethyl-phenyl)-ureido]-phenoxy}-quinolin-7-yloxy)-pentanoic acid cyclopentyl ester] | < 1000 |
| 2000 to 5000 | < 1000 | < 1000 | 2000 to 5000 | COc1cc2c(Oc3ccc(NC(=O)Nc4ccc(C(F)(F)F)cc4)cc3F)ccnc2cc1OCC[C@H](N)C(=O)OC1CCCC1 [Example 125, (S)-2-Amino-4-(4-{2-fluoro-4-[3-(4-trifluoromethyl-phenyl)-ureido]-phenoxy}-6-methoxy-quinolin-7-yloxy)-butyric acid cyclopentyl ester] | < 1000 |

| Structure (SMILES) | IC50 (Aurora-A) [nM] | IC50 (U937 cell line) [nM] | IC50 (HCT 116 cell line) [nM] | IC50 (Aurora-B) [nM] | IC50 (HUT cell line) [nM] |
| --- | --- | --- | --- | --- | --- |
| COc1cc2c(Oc3ccc(NC(=O)c4ccccc4)cc3)ccnc2cc1OCC[C@H](NC(=O)OC(C)(C)C)C(=O)OC1CCCC1 [Example 1, (S)-4-[4-(4-Benzoylamino-phenoxy)-6-methoxy-quinolin-7-yloxy]-2-tert-butoxycarbonylamino-butyric acid cyclopentyl ester] | 2000 to 5000 | < 1000 | < 1000 | > 5000 | 1000 to 5000 |
| COc1cc2c(Oc3ccc(NC(=O)c4ccccc4)cc3)c(Br)cnc2cc1OCC[C@H](N)C(=O)OC1CCCC1 [Example 32] | > 5000 | 1000 to 5000 | > 5000 | > 5000 | 1000 to 5000 |
